Tests used:
Conditions in all cases: incubation time: 72 h
[1] = test system: CAL-120; assay: normalised response (% of control), CellTox Green; higher = less cell death (100 = DMSO, 0 = benzethonium chloride kill control)
In short: (§1)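 Every value is a normalised signal taken at one concentration of a dilution series. Compound was placed in 384-well plates at 5 concentrations in 10-fold steps over a compound-specific 10,000-fold range, and 20 µl of breast cancer cell suspension was seeded onto it. After 72 h, CellTox Green fluorescence (485/520 nm) was measured first and CellTiter-Glo luminescence second, following 10 min at room temperature. Each plate was scaled to 0.1 % DMSO (100) and a positive kill control (0).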

[2] = test system: HCC1143; assay: as above
In short: as §1

[3] = test system: MDA-MB-453; assay: as above
In short: as §1

[4] = test system: CAL-85-1; assay: as above
In short: as §1

[5] = test system: DU-4475; assay: as above
In short: as §1

[6] = test system: MFM-223; assay: as above
In short: as §1

[7] = test system: HDQ-P1; assay: as above
In short: as §1

[8] = test system: MCF-10A; assay: as above
In short: as §1

[9] = test system: HCC1599; assay: as above
In short: as §1

[10] = test system: CAL-148; assay: as above
In short: as §1

[11] = test system: HCC1937; assay: as above
In short: as §1

[12] = test system: MDA-MB-436; assay: as above
In short: as §1

[13] = test system: BT-474; assay: as above
In short: as §1

[14] = test system: Hs578T; assay: as above
In short: as §1

[15] = test system: BT-549; assay: as above
In short: as §1

[16] = test system: MDA-MB-231; assay: as above
In short: as §1

[17] = test system: CAL-51; assay: as above
In short: as §1

[18] = test system: MDA-MB-468; assay: as above
In short: as §1

[19] = test system: CAL-120; assay: normalised response (% of control), CellTiter-Glo; higher = more viable cells (100 = DMSO, 0 = benzethonium chloride kill control)
In short: as §1

[20] = test system: HCC1143; assay: as above
In short: as §1

[21] = test system: MDA-MB-453; assay: as above
In short: as §1

[22] = test system: CAL-85-1; assay: as above
In short: as §1

[23] = test system: DU-4475; assay: as above
In short: as §1

[24] = test system: MFM-223; assay: as above
In short: as §1

[25] = test system: HDQ-P1; assay: as above
In short: as §1

[26] = test system: MCF-10A; assay: as above
In short: as §1

[27] = test system: HCC1599; assay: as above
In short: as §1

[28] = test system: CAL-148; assay: as above
In short: as §1

[29] = test system: HCC1937; assay: as above
In short: as §1

[30] = test system: MDA-MB-436; assay: as above
In short: as §1

[31] = test system: BT-474; assay: as above
In short: as §1

[32] = test system: SK-BR-3; assay: as above
In short: as §1

[33] = test system: Hs578T; assay: as above
In short: as §1

[34] = test system: BT-549; assay: as above
In short: as §1

[35] = test system: MDA-MB-231; assay: as above
In short: as §1

[36] = test system: CAL-51; assay: as above
In short: as §1

[37] = test system: MDA-MB-468; assay: as above
In short: as §1

`COc1ccc(-c2ccc3c(N4CCOC[C@@H]4C)nc(N4CCOC[C@@H]4C)nc3n2)cc1CO` [AZD8055] (100 nM) was tested, and the normalised response [1] was 98.2%, the normalised response [2] was 80.1% and the normalised response [3] was 85.5%. The normalised response [4] was 104%, the normalised response [5] was 94.9% and the normalised response [6] was 67%. It also gave a normalised response [7] of 109%, a normalised response [8] of 84.6% and a normalised response [9] of 87.7%. It also gave a normalised response [10] of 79.2%, a normalised response [11] of 97.7% and a normalised response [12] of 97.7%. For the same molecule, the normalised response [13] was 96.5%, the normalised response [14] was 93.9% and the normalised response [15] was 103%. The normalised response [16] was 94.6%, the normalised response [17] was 82.3% and the normalised response [18] was 13.6%. It also gave a normalised response [19] of 41.5%, a normalised response [20] of 45.1% and a normalised response [21] of 42.1%. The normalised response [22] was 41.1%, the normalised response [23] was 80.1% and the normalised response [24] was 36.9%. It also gave a normalised response [25] of 51.3%, a normalised response [26] of 50.4% and a normalised response [27] of 93%. It also gave a normalised response [28] of 49.5%, a normalised response [29] of 66.9% and a normalised response [30] of 51.5%. It also gave a normalised response [31] of 72%, a normalised response [32] of 27.5% and a normalised response [33] of 49.7%. For the same molecule, the normalised response [34] was 40.2%, the normalised response [35] was 62.3% and the normalised response [36] was 35.7%. For the same molecule, the normalised response [37] was 47.3%.

`CO[C@H]1C[C@@H]2CC[C@@H](C)[C@@](O)(O2)C(=O)C(=O)N2CCCC[C@H]2C(=O)O[C@H]([C@H](C)C[C@@H]2CC[C@@H](OCCO)[C@H](OC)C2)CC(=O)[C@H](C)/C=C(\C)[C@@H](O)[C@@H](OC)C(=O)[C@H](C)C[C@H](C)/C=C/C=C/C=C/1C` [Everolimus] (1 nM) was tested, and the normalised response [1] was 106%, the normalised response [2] was 79.1% and the normalised response [3] was 103%. For the same molecule, the normalised response [4] was 109%, the normalised response [5] was 96.3% and the normalised response [6] was 102%. It also gave a normalised response [7] of 83.1%, a normalised response [8] of 80% and a normalised response [9] of 89.6%. The normalised response [10] was 85.8%, the normalised response [11] was 99.9% and the normalised response [12] was 98.3%. The normalised response [13] was 96.7%, the normalised response [14] was 67.1% and the normalised response [15] was 79.8%. For the same molecule, the normalised response [16] was 105%, the normalised response [17] was 94.4% and the normalised response [18] was 121%. For the same molecule, the normalised response [19] was 77.8%, the normalised response [20] was 72.4% and the normalised response [21] was 82.7%. For the same molecule, the normalised response [22] was 69.3%, the normalised response [23] was 83% and the normalised response [24] was 71.6%. The normalised response [25] was 91.9%, the normalised response [26] was 91.6% and the normalised response [27] was 98.2%. For the same molecule, the normalised response [28] was 72%, the normalised response [29] was 75.2% and the normalised response [30] was 83.7%. It also gave a normalised response [31] of 91.9%, a normalised response [32] of 65.9% and a normalised response [33] of 70.6%. It also gave a normalised response [34] of 63.6%, a normalised response [35] of 82.9% and a normalised response [36] of 72.1%. The normalised response [37] was 57.1%.

`NS(=O)(=O)OC[C@@H]1C[C@@H](n2ccc3c(N[C@H]4CCc5ccccc54)ncnc32)C[C@@H]1O` [Pevonedistat] (100 nM) gave a normalised response [1] of 102%, a normalised response [2] of 120% and a normalised response [3] of 112%. It also gave a normalised response [4] of 81.5%, a normalised response [5] of 97.8% and a normalised response [6] of 65.2%. It also gave a normalised response [7] of 99.8%, a normalised response [8] of 108% and a normalised response [9] of 104%. The normalised response [10] was 94.7%, the normalised response [11] was 119% and the normalised response [12] was 102%. For the same molecule, the normalised response [13] was 102%, the normalised response [14] was 107% and the normalised response [15] was 106%. The normalised response [16] was 119%, the normalised response [17] was 36.4% and the normalised response [18] was 128%. The normalised response [19] was 91.1%, the normalised response [20] was 90.1% and the normalised response [21] was 88.9%. For the same molecule, the normalised response [22] was 77.8%, the normalised response [23] was 68.8% and the normalised response [24] was 79.1%. For the same molecule, the normalised response [25] was 102%, the normalised response [26] was 113% and the normalised response [27] was 75.6%. For the same molecule, the normalised response [28] was 120%, the normalised response [29] was 96.3% and the normalised response [30] was 82.9%. For the same molecule, the normalised response [31] was 114%, the normalised response [32] was 35.6% and the normalised response [33] was 98.7%. It also gave a normalised response [34] of 73.2%, a normalised response [35] of 118% and a normalised response [36] of 51.5%. For the same molecule, the normalised response [37] was 56.2%.

With `C/C(=C\c1csc(C)n1)[C@@H]1C[C@@H]2O[C@]2(C)CCC[C@H](C)[C@H](O)[C@@H](C)C(=O)C(C)(C)[C@@H](O)CC(=O)O1` [Patupilone] (10 nM) the normalised response [1] was 93.6%, the normalised response [2] was 108% and the normalised response [3] was 97.9%. For the same molecule, the normalised response [4] was 79.5%, the normalised response [5] was 99.5% and the normalised response [6] was 96.3%. The normalised response [7] was 110%, the normalised response [8] was 103% and the normalised response [9] was 106%. The normalised response [10] was 102%, the normalised response [11] was 99.4% and the normalised response [12] was 76.8%. For the same molecule, the normalised response [13] was 95.7%, the normalised response [14] was 84% and the normalised response [15] was 97.3%. It also gave a normalised response [16] of 92.9%, a normalised response [17] of 29.3% and a normalised response [18] of 34.5%. It also gave a normalised response [19] of 105%, a normalised response [20] of 77.5% and a normalised response [21] of 101%. The normalised response [22] was 80.2%, the normalised response [23] was 104% and the normalised response [24] was 107%. For the same molecule, the normalised response [25] was 98.7%, the normalised response [26] was 89.1% and the normalised response [27] was 114%. The normalised response [28] was 105%, the normalised response [29] was 100% and the normalised response [30] was 79.9%. It also gave a normalised response [31] of 94.6%, a normalised response [32] of 99.7% and a normalised response [33] of 90.9%. It also gave a normalised response [34] of 55.1%, a normalised response [35] of 97.9% and a normalised response [36] of 56%. For the same molecule, the normalised response [37] was 53.4%.

`CN(C)C[C@@H]1CCn2cc(c3ccccc32)C2=C(C(=O)NC2=O)c2cn(c3ccccc23)CCO1` [Ruboxistaurin] (100 nM) gave a normalised response [1] of 103%, a normalised response [2] of 99.5% and a normalised response [3] of 92.7%. The normalised response [4] was 109%, the normalised response [5] was 99.3% and the normalised response [6] was 103%. The normalised response [7] was 102%, the normalised response [8] was 95.6% and the normalised response [9] was 96.2%. It also gave a normalised response [10] of 102%, a normalised response [11] of 90% and a normalised response [12] of 79.8%. It also gave a normalised response [13] of 98.9%, a normalised response [14] of 66.2% and a normalised response [15] of 109%. The normalised response [16] was 112%, the normalised response [17] was 101% and the normalised response [18] was 141%. It also gave a normalised response [19] of 92.7%, a normalised response [20] of 94.7% and a normalised response [21] of 105%. It also gave a normalised response [22] of 96.6%, a normalised response [23] of 95.5% and a normalised response [24] of 99.8%. The normalised response [25] was 99.3%, the normalised response [26] was 89.3% and the normalised response [27] was 105%. The normalised response [28] was 94.5%, the normalised response [29] was 95.1% and the normalised response [30] was 98%. For the same molecule, the normalised response [31] was 99.5%, the normalised response [32] was 93% and the normalised response [33] was 98%. The normalised response [34] was 102%, the normalised response [35] was 96.1% and the normalised response [36] was 105%. It also gave a normalised response [37] of 93.8%.

`CCCCCCCCc1ccc(CCC(N)(CO)CO)cc1` [Fingolimod] (100 nM) gave a normalised response [1] of 104%, a normalised response [2] of 103% and a normalised response [3] of 109%. For the same molecule, the normalised response [4] was 102%, the normalised response [5] was 100% and the normalised response [6] was 103%. For the same molecule, the normalised response [7] was 91.7%, the normalised response [8] was 95.9% and the normalised response [9] was 111%. The normalised response [10] was 87.9%, the normalised response [11] was 115% and the normalised response [12] was 97.3%. The normalised response [13] was 101%, the normalised response [14] was 110% and the normalised response [15] was 88.7%. For the same molecule, the normalised response [16] was 78.8%, the normalised response [17] was 109% and the normalised response [18] was 122%. The normalised response [19] was 97%, the normalised response [20] was 100% and the normalised response [21] was 97.4%. For the same molecule, the normalised response [22] was 105%, the normalised response [23] was 99.7% and the normalised response [24] was 106%. The normalised response [25] was 103%, the normalised response [26] was 105% and the normalised response [27] was 107%. For the same molecule, the normalised response [28] was 101%, the normalised response [29] was 96% and the normalised response [30] was 100%. For the same molecule, the normalised response [31] was 99.9%, the normalised response [32] was 107% and the normalised response [33] was 97.4%. It also gave a normalised response [34] of 95.8%, a normalised response [35] of 100% and a normalised response [36] of 92.5%. It also gave a normalised response [37] of 107%.
